Reference: patent publication US20150307520A1, “NOVEL HETEROARYL AND HETEROCYCLE COMPOUNDS, COMPOSITIONS AND METHODS THEREOF” (HUTCHISON MEDIPHARMA LIMITED, priority 2012, published 2015)
pIC50: −log10 of the molar value.

How the values were obtained:
Format in all cases: biochemical
[1] = target: p110δ/p85α (Homo sapiens, UniProt O00329); assay: Transcreener KINASE Assay, kinase inhibition of p110δ/p85α; conditions: for PI3Kδ IH % @ 1 uM: 1 uM test compound; for pIC50: read-out: PI3Kδ IC50
Outline: (§1)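 Recombinant human PI3K heterodimers (p110/p85α) incubated with compound (2% DMSO final) in HEPES/NaCl/EGTA/CHAPS/MgCl2/DTT buffer with 30 uM PIP2 and 10 uM ATP (as added) for 80 min at room temperature.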

[2] = target: p110β/p85α (Homo sapiens, UniProt P42338); assay: Transcreener KINASE Assay, kinase inhibition of p110β/p85α; conditions: for PI3Kβ IH % @ 1 uM: 1 uM test compound; for pIC50: read-out: PI3Kβ IC50
Chain of p110β/p85α (P42338 whole entry): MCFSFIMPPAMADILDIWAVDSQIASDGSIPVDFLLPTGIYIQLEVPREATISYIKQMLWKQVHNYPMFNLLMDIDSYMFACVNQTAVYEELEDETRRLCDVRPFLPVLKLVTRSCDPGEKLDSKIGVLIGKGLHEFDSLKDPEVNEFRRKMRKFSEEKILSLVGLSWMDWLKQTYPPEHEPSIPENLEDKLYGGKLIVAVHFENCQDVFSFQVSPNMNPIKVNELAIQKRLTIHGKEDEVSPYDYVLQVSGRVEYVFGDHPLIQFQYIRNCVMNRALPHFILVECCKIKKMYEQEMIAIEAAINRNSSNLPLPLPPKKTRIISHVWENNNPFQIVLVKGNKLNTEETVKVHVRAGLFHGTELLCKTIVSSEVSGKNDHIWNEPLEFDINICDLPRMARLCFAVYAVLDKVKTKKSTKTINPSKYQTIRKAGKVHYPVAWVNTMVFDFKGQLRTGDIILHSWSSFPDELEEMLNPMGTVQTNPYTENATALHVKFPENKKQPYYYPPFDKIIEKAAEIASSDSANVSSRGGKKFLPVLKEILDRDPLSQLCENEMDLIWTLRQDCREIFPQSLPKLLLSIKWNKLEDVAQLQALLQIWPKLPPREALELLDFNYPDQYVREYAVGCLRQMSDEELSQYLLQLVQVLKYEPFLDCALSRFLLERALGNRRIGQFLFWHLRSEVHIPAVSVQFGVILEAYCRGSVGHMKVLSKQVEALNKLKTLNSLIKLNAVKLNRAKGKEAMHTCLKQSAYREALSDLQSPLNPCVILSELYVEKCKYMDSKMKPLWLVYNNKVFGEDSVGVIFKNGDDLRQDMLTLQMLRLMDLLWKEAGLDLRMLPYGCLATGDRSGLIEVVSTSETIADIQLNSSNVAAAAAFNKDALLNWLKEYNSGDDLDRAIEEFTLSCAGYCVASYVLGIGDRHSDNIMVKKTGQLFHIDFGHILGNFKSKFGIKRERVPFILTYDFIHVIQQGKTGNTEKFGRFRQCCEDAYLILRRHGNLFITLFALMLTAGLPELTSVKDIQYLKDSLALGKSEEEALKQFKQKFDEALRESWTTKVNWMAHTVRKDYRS
Chain of p110β/p85α (P27986 2-724 partner): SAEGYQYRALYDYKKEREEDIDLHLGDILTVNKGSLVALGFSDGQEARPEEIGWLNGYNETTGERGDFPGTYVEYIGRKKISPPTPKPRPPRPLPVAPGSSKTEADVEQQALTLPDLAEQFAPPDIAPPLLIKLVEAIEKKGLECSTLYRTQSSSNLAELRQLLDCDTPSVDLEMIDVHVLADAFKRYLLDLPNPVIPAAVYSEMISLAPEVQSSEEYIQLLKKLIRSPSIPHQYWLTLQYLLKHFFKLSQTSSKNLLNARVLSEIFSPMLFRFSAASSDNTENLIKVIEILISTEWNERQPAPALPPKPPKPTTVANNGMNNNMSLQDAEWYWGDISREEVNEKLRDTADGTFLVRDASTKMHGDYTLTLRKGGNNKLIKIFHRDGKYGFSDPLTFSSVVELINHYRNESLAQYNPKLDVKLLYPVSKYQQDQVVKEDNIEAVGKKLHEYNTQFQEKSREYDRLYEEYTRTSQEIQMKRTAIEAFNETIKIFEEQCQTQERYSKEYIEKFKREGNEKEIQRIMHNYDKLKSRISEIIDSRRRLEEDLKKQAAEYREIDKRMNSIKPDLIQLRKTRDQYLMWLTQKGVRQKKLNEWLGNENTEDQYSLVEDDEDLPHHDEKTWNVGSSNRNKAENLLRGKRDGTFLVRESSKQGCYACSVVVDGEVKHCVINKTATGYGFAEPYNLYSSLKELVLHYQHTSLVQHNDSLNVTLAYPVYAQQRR
Outline: as §1

[3] = target: p110γ (Homo sapiens, UniProt P48736); assay: Transcreener KINASE Assay, kinase inhibition of p110γ; conditions: for PI3Kγ IH % @ 1 uM: 1 uM test compound; for pIC50: read-out: PI3Kγ IC50
Chain of p110γ (P48736 whole entry): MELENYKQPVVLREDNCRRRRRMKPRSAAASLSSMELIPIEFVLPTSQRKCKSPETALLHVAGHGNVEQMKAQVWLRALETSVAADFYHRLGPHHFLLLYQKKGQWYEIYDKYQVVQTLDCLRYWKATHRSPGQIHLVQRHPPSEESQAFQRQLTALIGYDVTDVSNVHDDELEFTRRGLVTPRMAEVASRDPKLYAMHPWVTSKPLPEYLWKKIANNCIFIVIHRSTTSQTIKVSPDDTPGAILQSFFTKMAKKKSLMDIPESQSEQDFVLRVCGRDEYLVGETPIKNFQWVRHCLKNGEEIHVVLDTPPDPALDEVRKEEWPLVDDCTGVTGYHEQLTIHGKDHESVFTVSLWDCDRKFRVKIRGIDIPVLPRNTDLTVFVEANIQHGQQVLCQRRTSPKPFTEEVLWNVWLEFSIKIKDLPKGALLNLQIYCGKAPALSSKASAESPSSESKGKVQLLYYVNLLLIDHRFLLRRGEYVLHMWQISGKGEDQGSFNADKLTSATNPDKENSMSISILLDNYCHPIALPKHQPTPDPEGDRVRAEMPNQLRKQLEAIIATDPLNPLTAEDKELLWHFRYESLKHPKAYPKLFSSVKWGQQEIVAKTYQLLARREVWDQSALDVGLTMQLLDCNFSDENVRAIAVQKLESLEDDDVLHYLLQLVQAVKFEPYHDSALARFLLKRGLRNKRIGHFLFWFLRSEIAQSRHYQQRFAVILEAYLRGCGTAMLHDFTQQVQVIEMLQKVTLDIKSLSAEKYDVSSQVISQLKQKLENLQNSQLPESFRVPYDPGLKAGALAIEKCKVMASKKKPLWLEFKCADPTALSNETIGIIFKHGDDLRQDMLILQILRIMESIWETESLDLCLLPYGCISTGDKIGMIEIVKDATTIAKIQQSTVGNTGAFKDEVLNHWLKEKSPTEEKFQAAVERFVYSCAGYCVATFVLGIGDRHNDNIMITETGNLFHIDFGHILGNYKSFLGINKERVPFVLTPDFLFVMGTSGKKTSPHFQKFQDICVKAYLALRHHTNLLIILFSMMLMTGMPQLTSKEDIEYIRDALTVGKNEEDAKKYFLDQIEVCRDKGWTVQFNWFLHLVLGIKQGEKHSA
Outline: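 FP read-out: far-red competitive immunoassay sensing ADP produced by recombinant p110/p85 or p110γ enzyme. Reaction 80 min RT, then detection mix 60 min RT. IC50 from curve fit.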

[4] = target: p110α/p85α (Homo sapiens, UniProt P42336); assay: Transcreener KINASE Assay, kinase inhibition of p110α/p85α; conditions: 1 uM test compound
Experimental: PI3K kinases including p110α/p85α, p110δ/p85α and p110γ are purchased from Invitrogen, and p110β/p85α is from Millipore.
Primary screening data and IC50 values are measured using Transcreener™ KINASE Assay (Bellbrook, Catalog #3003-10K). […] It is a universal, homogenous, high throughput screening (HTS) technology using a far-red, competitive fluorescence polarization immunoassay based on the detection of ADP to monitor the activity of enzymes that catalyze group transfer reactions. Briefly, the Transcreener KINASE Assay is designed as a simple two-part, endpoint assay.
In the first step, the 25 ul kinase reaction is performed by preparing a reaction mixture containing 5 ul test compound (2% DMSO final concentration), 10 ul kinase, buffer (50 mM HEPES, 100 mM NaCl, 1 mM EGTA, 0.03% CHAPS, 3 mM MgCl2, and freshly supplemented 1 mM DTT), and 10 ul 30 uM PIP2/10 uM ATP. The plate is sealed and incubated for 80 min at room temperature. Next, 25 ul ADP detection mix is added per well. The plate is sealed again and incubated for 60 min at room temperature, and then measure fluorescence polarization by Tecan Infinite F500 Reader.
Data is analyzed and IC50s are generated using the add-in software for Microsoft Excel, Xlfit™ (version 2.0). IH %=(ADP amount under 2% DMSO-ADP amount under test compound)/ADP amount under 2% DMSO.

Chain of p110δ/p85α (O00329 whole entry): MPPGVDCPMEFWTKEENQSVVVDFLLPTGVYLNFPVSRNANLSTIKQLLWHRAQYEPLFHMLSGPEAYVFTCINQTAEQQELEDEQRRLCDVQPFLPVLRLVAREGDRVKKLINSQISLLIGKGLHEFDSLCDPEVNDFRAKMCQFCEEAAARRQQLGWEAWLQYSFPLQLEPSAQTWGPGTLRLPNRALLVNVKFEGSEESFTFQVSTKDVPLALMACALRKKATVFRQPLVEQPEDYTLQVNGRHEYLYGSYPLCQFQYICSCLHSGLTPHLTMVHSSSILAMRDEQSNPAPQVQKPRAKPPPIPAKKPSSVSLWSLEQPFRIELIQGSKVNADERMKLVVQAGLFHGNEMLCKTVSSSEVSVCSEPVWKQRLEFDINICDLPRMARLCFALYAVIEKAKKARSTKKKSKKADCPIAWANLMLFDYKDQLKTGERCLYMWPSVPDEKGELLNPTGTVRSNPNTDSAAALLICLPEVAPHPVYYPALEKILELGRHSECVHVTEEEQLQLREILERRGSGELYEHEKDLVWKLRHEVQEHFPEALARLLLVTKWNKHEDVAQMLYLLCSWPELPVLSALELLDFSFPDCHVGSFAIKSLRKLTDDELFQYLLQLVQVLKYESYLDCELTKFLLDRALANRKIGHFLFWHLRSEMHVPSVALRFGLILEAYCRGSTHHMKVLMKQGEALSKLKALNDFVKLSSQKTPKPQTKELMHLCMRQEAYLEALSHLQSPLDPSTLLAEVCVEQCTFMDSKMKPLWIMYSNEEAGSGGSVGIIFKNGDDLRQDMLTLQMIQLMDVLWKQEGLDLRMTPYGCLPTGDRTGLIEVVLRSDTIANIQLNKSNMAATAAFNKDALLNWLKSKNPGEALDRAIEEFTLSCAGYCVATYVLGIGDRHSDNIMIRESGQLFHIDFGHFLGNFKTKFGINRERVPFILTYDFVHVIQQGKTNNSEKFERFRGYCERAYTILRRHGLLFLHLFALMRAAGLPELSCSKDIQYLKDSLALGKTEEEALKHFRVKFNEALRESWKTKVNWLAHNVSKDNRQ
Chain of p110δ/p85α (P27986 whole entry partner): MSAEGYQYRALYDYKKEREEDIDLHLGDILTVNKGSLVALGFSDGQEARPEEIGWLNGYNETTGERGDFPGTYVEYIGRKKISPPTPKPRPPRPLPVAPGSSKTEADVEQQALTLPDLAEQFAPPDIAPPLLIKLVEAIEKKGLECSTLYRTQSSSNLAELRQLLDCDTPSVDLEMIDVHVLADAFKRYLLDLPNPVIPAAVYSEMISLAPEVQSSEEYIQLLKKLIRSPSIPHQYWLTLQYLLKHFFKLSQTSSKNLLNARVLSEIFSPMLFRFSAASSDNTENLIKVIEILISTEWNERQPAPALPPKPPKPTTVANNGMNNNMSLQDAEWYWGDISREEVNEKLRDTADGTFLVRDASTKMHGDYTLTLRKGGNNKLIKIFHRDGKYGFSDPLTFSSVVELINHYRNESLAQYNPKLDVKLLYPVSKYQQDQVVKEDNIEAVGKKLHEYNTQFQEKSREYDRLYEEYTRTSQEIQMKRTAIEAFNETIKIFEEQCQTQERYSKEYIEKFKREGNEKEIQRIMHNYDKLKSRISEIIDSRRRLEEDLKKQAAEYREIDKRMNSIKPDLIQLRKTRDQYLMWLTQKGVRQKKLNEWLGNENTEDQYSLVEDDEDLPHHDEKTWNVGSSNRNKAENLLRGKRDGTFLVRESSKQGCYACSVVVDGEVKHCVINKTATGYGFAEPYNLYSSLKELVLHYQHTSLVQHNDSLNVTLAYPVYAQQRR

Row | SMILES | PI3Kδ IH % @ 1 uM [1] | pIC50 [1] | PI3Kβ IH % @ 1 uM [2] | pIC50 [2] | PI3Kγ IH % @ 1 uM [3] | pIC50 [3] | PI3Kα IH % @ 1 uM [4]
1 | O=c1c2c(Cl)ccn2nc([C@@H]2C[C@H](F)CN2c2ncnc3[nH]cnc23)n1-c1ccccc1 [Compound 73, 5-chloro-2-((2S,4S)-4-fluoro-1-(9H-purin-6-yl)pyrrolidin-2-yl)-3-phenylpyrrolo[2,1-f][1,2,4]triazin-4(3H)-one] | >100% | 8.52 | 69.5% | 6.38 | 92.7% |  | 33.6%
2 | CC(Nc1nc(N)ncc1C(F)(F)F)c1cn2ccc(Cl)c2c(=O)n1-c1cccc(F)c1 (stereo not shown) [Compound 84] | >100% | 8.40 | 59.3% |  | 75.9% | 7.49 | −3.5%
3 | Cc1ccn2cc(C(C)Nc3ncnc4[nH]cc(C#N)c34)n(-c3ccccc3)c(=O)c12 (stereo not shown) [Compound 91] | >100% | 8.30 | 78.3% | 6.65 | 93.5% | 7.47 | 48.3%
4 | Cc1ccn2cc(C(C)Nc3ncnc4[nH]cnc34)n(-c3ccccc3)c(=O)c12 (stereo not shown) [Compound 92] | >100% | 8.52 | 65.2% |  | 95.7% | 7.70 | 31.8%
5 | Nc1ccc(-c2c[nH]c3ncnc(N4CC[C@H]4c4nn5ccc(Cl)c5c(=O)n4-c4ccccc4)c23)cn1 [Compound 101] | >100% | 8.52 | 81.6% | 6.86 | >100% |  | 47.8%
6 | CC(Nc1ncnc2[nH]cnc12)c1cc2ccc(Cl)n2c(=O)n1-c1cccc(F)c1 (stereo not shown) [Compound 127] | 99.2% | 8.30 | 71.3% | 6.51 | >100% | 7.24 | 7.0%

Further lines, results first:

Row | PI3Kδ IH % @ 1 uM [1] | pIC50 [1] | PI3Kβ IH % @ 1 uM [2] | pIC50 [2] | PI3Kγ IH % @ 1 uM [3] | pIC50 [3] | PI3Kα IH % @ 1 uM [4] | SMILES
7 | 99.1% | 8.52 | 92.1% | 6.66 | >100% | 7.60 | 41.6% | N#Cc1c[nH]c2ncnc(N3C[C@H](O)C[C@H]3c3nn4ccc(Cl)c4c(=O)n3-c3ccccc3)c12 [Compound 70, 4-((2S,4R)-2-(5-chloro-4-oxo-3-phenyl-3,4-dihydropyrrolo[2,1-f][1,2,4]triazin-2-yl)-4-hydroxypyrrolidin-1-yl)-7H-pyrrolo[2,3-d]pyrimidine-5-carbonitrile]
8 | >100% | 9.00 | 74.7% | 6.51 | 87.8% | 7.52 | 27.4% | CCC(Nc1ncnc2[nH]cnc12)c1cn2ccc(Cl)c2c(=O)n1-c1cccc(F)c1 (stereo not shown) [Compound 85, 3-(1-(9H-purin-6-ylamino)propyl)-8-chloro-2-(3-fluorophenyl)pyrrolo[1,2-a]pyrazin-1(2H)-one]
9 | 99.0% | 8.70 | 86.5% | 6.76 | 76.4% | 6.86 | 17.8% | CCC(Nc1ncnc(N)c1C#N)c1cn2ccc(Cl)c2c(=O)n1-c1cccc(F)c1 (stereo not shown) [Compound 86]
10 | 99.0% | 9.00 | 87.8% | 7.07 | 96.2% | 8.00 | 40.3% | CC(Nc1ncnc2[nH]cc(C#N)c12)c1cc2ccc(Cl)n2c(=O)n1-c1cccc(F)c1 (stereo not shown) [Compound 128]
11 | >100% | 9.00 | >100% | 6.55 | >100% | 8.00 | 28.4% | C[S+]([O-])c1c[nH]c2ncnc(N3CCC[C@H]3c3nn4ccc(Cl)c4c(=O)n3-c3ccccc3)c12 (stereo partly shown) [Compound 186]
